# Patent US20230080241A1 (priority 2020, published 2023)
# Read-outs that look alike come from different tables or passages of the source.
# Columns and labels:
# Plasmodium falciparum = assay: in vitro asexual blood stage growth of Plasmodium falciparum; format: cell-based; conditions: for IC50: Plasmodium falciparum, P. falciparum in vitro
# Procedure: Presented herein is experiment data representing tranexamic acid as an antimalarial druggable scaffold. The results shown below show the efficacy of tranexamic acid against both Plasmodium falciparum and P. berghei across the parasite lifecycle. The data herein illustrates the ability of tranexamic acid to act as an antimicrobial agent, and more particularly, in some embodiments, as an antimalarial drug. Experiments were conducted to test, in vitro, the ability of tranexamic acid to impair the asexual intraerythrocytic development of P. falciparum. All of the symptoms associated with malaria infection are caused by the asexual blood stages, which makes them a logical therapeutic target.
# Up to six different concentrations of tranexamic acid plus a negative control (carrier with no drug) were tested in a highly synchronous culture. A two-fold serial dilution starting at 200 mM was prepared, replenishing the drug daily for four consecutive days (i.e. two complete intraerythrocytic cycles).
# FIG. 1 illustrates in vitro asexual blood stage growth at day 1 after 1 dose of tranexamic acid (TXA). Values are the mean of three technical replicates, and error bars represent the standard deviation. FIG. 2 illustrates in vitro asexual blood stage growth at day 3 after 3 doses of tranexamic acid (TXA). Values are the mean of three technical replicates, and error bars represent the standard deviation. FIG. 3 illustrates in vitro IC50 of tranexamic acid after three daily doses. Values are the mean of three technical replicates, relative to the minimal effect (i. e. the parasitemia from the samples with no drug). Error bars represent the standard deviation. Morphological defective parasites could be observed at day 4 in the two lowest tested concentrations (i.e. 12.5 and 6.25 mM). Healthy segmented schizonts were selected from the sample mock-treated in the absence of tranexamic acid (0 mM).
# [1] = tested on: Plasmodium berghei ANKA mCherry; format: in vivo, mice (outbred CD1); conditions: mice
# Procedure: In addition to in vitro experiments to test the ability of tranexamic acid to impair the asexual intraerythrocytic development of P. falciparum, experiments were conducted to test, in vivo, the ability of tranexamic acid to cure asynchronized blood stage infections of Plasmodium berghei ANKA mCherry in mice. P. berghei is a species in the genus Plasmodium subgenus Vinckeia and is a protozoan parasite that causes malaria in rodents. Due to its ability to infect rodents and relative ease of genetic engineering, P. berghei is a popular model organism for the study of human malaria, and was thus used in the present disclosure.
# Recipient mice (n=5/group; 3 groups) received blood from a donor mouse containing asynchronous asexual blood stages of P. berguei. Parasitemia was monitored and when it reached at least 5% mice were treated intravenously (i.v.) with 20, 10, or 0 mg of tranexamic acid in a phosphate-buffered saline (PBS) carrier. Blood smears from tail snips were prepared every 24 hours, or until the humane endpoint criteria was reached, to monitor parasitemia.
# FIG. 4 illustrates in vivo asexual blood stage growth of P. berghei after the injection of the PBS carrier. […]
compound,measurement,setting,value
NC[C@H]1CC[C@H](C(=O)O)CC1 [tranexamic acid],clearance of infection,"Plasmodium falciparum; 100 mM, after 48 hours, two doses",cleared the infection
same,clearance of infection,"Plasmodium falciparum; 200 mM, after 24 hours, single dose, FIG. 1",completely cleared the infection
same,parasite morphology,"Plasmodium falciparum; 12.5 and 6.25 mM, day 4, some parasites arrested at schizont-like morphology",morphological defects could be observed
same,IC50,"Plasmodium falciparum; 72 h, after 3 daily doses, FIG. 3, read-out: IC50 at day 3",11.4 mM
same,IC50,"Plasmodium falciparum; drug replenished on a daily basis, read-out: in vitro IC50",11.4 mM
same,growth delay,"Plasmodium falciparum; some of the tested concentrations, rings and early trophozoites on day 3 (72 hours after first dose), FIG. 2",a growth delay was observed
same,equivalent in vitro concentration based on estimated volemia,[1]; 10 mg injection i.v.,approximately 37 mM
same,equivalent in vitro concentration based on estimated volemia,[1]; 20 mg injection i.v.,~75 mM
